Assay results as given in US20050234043A1, “ACE inhibitor-vasopressin antagonist combinations” (priority 2000, published 2005).
Structures can show the parent of a compound that is named as a salt.

Assays:
[1] = test system: patients with NYHA Class III/IV heart failure; assay: Double-blind placebo-controlled IV dose-response study of cardiopulmonary hemodynamics in NYHA Class III/IV heart failure patients on ACE inhibitor background; format: in vivo, human; settings: CHF patients
Description: These patients have advanced CHF/LV dysfunction. Patients must be receiving background therapy of diuretics, ACE inhibitors, and optionally digoxin and/or β-blocker; patients will be stratified as to whether they are receiving concomitant β-blocker treatment. […] Patients should take their daily dose of concomitant heart failure medications within 2 hours of catheter insertion. No additional doses of background heart failure medications should be administered during the study treatment phase. After insertion of a balloon-floatation pulmonary artery catheter, serial measurements will be obtained over an 8- to 18-hour baseline and stabilization period. […] The mean baseline PCWP in this study group was 24.2 mmHg. The mean baseline CI was 2.1 L/min/m^2. […] Fluid intake will be restricted to 250 mL every 2 hours (except at time of IV infusion) from time of insertion of Swan-Ganz catheter and throughout the treatment period. […] Serum electrolytes, BUN, creatinine, and serum osmolality will be measured at baseline and 4 and 12 hours posttreatment. Clinical laboratory and vasopressin plasma levels will be measured at baseline and 12 hours postdrug administration. […] Patients meeting baseline eligibility criteria (CI≦2.6 L/min/m^2; PCWP≧16 mmHg) on successive readings at least 30 minutes apart during 2 hours prior to study drug administration will enter the treatment phase. […] Clinical laboratory and vasopressin plasma levels will be measured 12 hours postdose. […] Serum electrolytes, BUN, creatinine, serum osmolality will be measured at 4 and 12 hours posttreatment. […] For this study, hemodynamic efficacy parameters of PCWP, CI, SVR, and PVR will be evaluated in terms of their response profile. The response profile will be assessed in terms of peak change, and AUC delimited by the parameter change from baseline and measurement times. […] If measurements are missing at certain times, the AUC will be calculated using all other available observations. Dose response over the treatment groups will be assessed for selected measures. […]

[2] = test system: dogs with heart failure induced by rapid right ventricular pacing; assay: Heart failure induced by rapid right ventricular pacing; format: in vivo; settings: IV 0.1 mg/kg
dogs [3] = settings: dog, in vivo, iv, 2 mg/kg
[4] = test system: urinary output (V2 antagonism); assay: Urinary output and osmolality in conscious dogs; format: in vivo
rabbits = assay: Teratogenicity in rabbits; format: in vivo
human lymphocytes = assay: Clastogenicity in human lymphocytes in vitro; format: cell-based
rats [5] = assay: Reproductive performance / fertility studies in rats; format: in vivo
rats [6] = settings: rat, in vivo, iv, 2.5 mg/kg
dogs [7] = assay: 2- and 13-week oral toxicity studies in dogs; format: in vivo
[8] = test system: AVP-induced pressor response (V1A antagonism); assay: Antagonism of AVP-induced pressor response, oral, rats; format: in vivo
[9] = test system: aquaretic action (V2-receptor antagonism); assay: Aquaretic action in normal subjects; format: in vivo, human
[10] = Oral pharmacokinetics in rat; format: in vivo
Description: (§1) There is a marked food effect with absorption reduced by >50% in dogs after a meal.

[11] = test system: AVP-induced dermal vasoconstriction; assay: AVP-induced dermal vasoconstriction in Phase 1 subjects; format: in vivo, human; settings: 50 mg IV
[12] = Oral pharmacokinetics in dog; format: in vivo
Description: as §1

[13] = Pharmacokinetics in healthy subjects (Phase 1); settings: human
[14] = test system: AVP-induced platelet aggregation (V1A antagonist activity); assay: AVP-induced platelet aggregation in Phase 1 subjects; format: in vivo, human; settings: 20 mg/day orally or 2.5 mg IV
[15] = test system: AVP-induced pressor response (V1A antagonism); assay: Antagonism of AVP-induced pressor response, IV, dogs; format: in vivo
rats [16] = assay: Teratogenicity in rats; format: in vivo
bacteria = assay: Mutagenicity in bacteria; format: cell-based
rats [17] = settings: female rats, 13-week repeated oral dose
subjects = assay: Safety in Phase 1 subjects; format: in vivo, human
Description: Other adverse events included flushes, a sensation of cold extremities, abdominal complaints, abnormal stools, syncope, dizziness, palpitations, and postural hypotension. Three subjects who received YM087 and one subject who received placebo developed minor, reversible leukopenia. […] These observations were considered related to antagonism of V2 receptors and not a safety concern. Vital signs (blood pressure and heart rate) were unaffected by YM087.

bone marrow of rats = assay: Clastogenicity in bone marrow of rats; format: in vivo

With `Cc1nc2c([nH]1)-c1ccccc1N(C(=O)c1ccc(NC(=O)c3ccccc3-c3ccccc3)cc1)CC2` [YM087, N-[4-(2-methyl-,4,5,6-tetrahydrornidazo[4,5-d][1]benzazepin-6-ylcarbonyl)phenyl]biphenyl-2-carboxamide hydrochloride] the “pulmonary capillary wedge pressure (PCWP)” value ([1]; IV 10, 20 or 40 mg, 85% receiving ACE inhibitor, FIG. 1) was “significant reductions”, the “right atrial pressure (RAP)” value ([1]; IV 10, 20 or 40 mg, 85% receiving ACE inhibitor, FIG. 2) was “significant reduction” and the “hemodynamic effect as add-on therapy to ACE inhibitors” value ([1]; add-on to normal treatment with ACE inhibitors) was “surprisingly favorable hemodynamic effect”. For the same molecule, the cardiac function [2] was “significantly improved the depressed cardiac function”, the diuresis [2] was “produced a water diuresis” and the toxicity (dogs [3]) was “No toxicity was observed”. For the same molecule, the urinary output ([4]; conscious dogs, oral 0.03 to 0.3 mg/kg, dose-related) was “increased urinary output”, the urinary osmolality ([4]; conscious dogs, oral 0.03 to 0.3 mg/kg, reduced from 1500) was less than 100 mOsm/kg H2O and the “effect on urinary sodium (Na) or potassium (K) excretion” value ([4]; unlike furosemide) was “little or no effect”. The teratogenicity (rabbits) was “not teratogenic”, the clastogenicity (human lymphocytes) was “not clastogenic” and the female fertility (rats [5]; female rats, 100 mg/kg orally for 2 weeks prior to mating with untreated males) was “reduced fertility index, increased implantation loss, and decreased live fetuses”. The “reproductive performance of male rats” value (rats [5]; male rats) was “did not affect”, the toxicity (rats [6]) was “No toxicity was observed” and the peripheral blood counts (dogs [7]; affected dogs, 13-week study) was “Decreased peripheral erythrocyte, leukocyte, and/or platelet counts”. For the same molecule, the “reversibility of bone marrow and peripheral blood changes” value (dogs [7]; dogs) was “reversible”, the bone marrow histopathology (dogs [7]; dogs, 2- and 13-week oral studies) was “Histopathologic changes in bone marrow were observed” and the “dose that reduced the AVP response by 50% (ID50)” value [8] was 0.32 mg/kg. For the same molecule, the “duration of increased urine production rate postdosing” value ([9]; IV 50 mg/day) was no more than 6 h, the “duration of increased urine production rate postdosing” value ([9]; IV doses up to 250 μg/kg) was “up to 3 hours” and the “tolerability of aquaretic effects” value ([9]; normal subjects, 120 mg QD or 60 mg BID orally or 50 mg IV) was “too uncomfortable in normal subjects to be tolerable”. For the same molecule, the “dose at which aquaretic action with decrease in urine osmolarity starts” value ([9]; normal subjects, IV) was 0.05 mg/kg, the “dose at which aquaretic action with decrease in urine osmolarity starts” value ([9]; normal subjects, oral) was 15 mg and the “time to peak concentrations” value [10] was 0.5 h. For the same molecule, the AVP-induced dermal vasoconstriction [11] was “Total inhibition”, the “time to peak concentrations” value [12] was 1 h and the half-life ([13]; plasma) was 4 to 5 h. For the same molecule, the bioavailability ([13]; plasma, oral) was 43 to 59%, the Tmax ([13]; plasma, po) was roughly 1 h and the “plasma levels on repeated dosing” value ([13]; repeated BID oral doses, 60 mg) was “unexpectedly high plasma levels after the second dose”. For the same molecule, the AVP-induced platelet aggregation [14] was “Inhibition”, the “ID50, AVP-induced pressor response” value [15] was 0.026 mg/kg and the teratogenicity (rats [16]) was “not teratogenic”. The mutagenicity (bacteria) was “not mutagenic”, the uterine weights (rats [17]) was “decreased at all doses” and the overall safety (subjects; approximately 250 subjects treated) was “no major safety concerns were identified”. For the same molecule, the “urinary and plasma osmolarity” value (subjects; at higher doses, with or without an increase in plasma sodium) was “urinary osmolarity decreased and plasma osmolarity increased”, the “biochemical or hematological laboratory parameters” value (subjects; human, in vivo) was “No drug-related trend was observed” and the “vital signs (blood pressure and heart rate)” value (subjects; human, in vivo) was “unaffected”. The serious adverse event (subjects; one patient with severe CHF, 80 mg/day for 4 days, relation to study drug could not be excluded) was “generalized tonic clonic seizure”, the “number of subjects who developed minor, reversible leukopenia” value (subjects; one subject on placebo also) was “Three” and the “most frequent adverse events” value (subjects; regardless of treatment association) was “mild or moderate thirst and mild headache”. For the same molecule, the clastogenicity (bone marrow of rats) was “not clastogenic”.
